Tests used:
[1] = xn = mol fraction of the nth substance listed; settings: 298.15 K, 101 kPa, Liquid
[2] = excess molar enthalpy (molar enthalpy of mixing); xn = mol fraction of the nth substance listed; settings: 298.15 K, 101 kPa, Liquid, Calvet calorimetry

CCCCCOC=O [pentyl methanoate] + ClCCCCCCl
Settings | excess molar enthalpy [kcal/mol] | mass density [kg/m3]
[1], x1 = 0.0607 | – | 1082.26
[1], x1 = 0.1185 | – | 1069.95
[1], x1 = 0.1761 | – | 1057.7
[1], x1 = 0.2336 | – | 1045.52
[1], x1 = 0.2924 | – | 1033.04
[1], x1 = 0.3501 | – | 1020.86
[1], x1 = 0.4661 | – | 996.38
[1], x1 = 0.5254 | – | 983.92
[1], x1 = 0.6434 | – | 959.15
[1], x1 = 0.7028 | – | 946.7
[1], x1 = 0.7612 | – | 934.48
[1], x1 = 0.8194 | – | 922.34
[1], x1 = 0.8788 | – | 909.95
[1], x1 = 0.9368 | – | 897.88
[2], x1 = 0.0613 | -0.00304 | –
[2], x1 = 0.141 | -0.00758 | –
[2], x1 = 0.2146 | -0.0133 | –
[2], x1 = 0.2884 | -0.0206 | –
[2], x1 = 0.3563 | -0.0273 | –
[2], x1 = 0.4177 | -0.0314 | –
[2], x1 = 0.4725 | -0.0349 | –
[2], x1 = 0.5239 | -0.0355 | –
[2], x1 = 0.5551 | -0.0363 | –
[2], x1 = 0.6165 | -0.0347 | –
[2], x1 = 0.6887 | -0.0321 | –
[2], x1 = 0.7706 | -0.0272 | –
[2], x1 = 0.8586 | -0.0187 | –
[2], x1 = 0.9347 | -0.00997 | –

ClCCCCCCCl [1,6-dichlorohexane] + CCCCOC=O
Settings | excess molar enthalpy [kcal/mol] | mass density [kg/m3]
[1], x2 = 0.074 | – | 1053.56
[1], x2 = 0.1444 | – | 1043.66
[1], x2 = 0.2217 | – | 1032.43
[1], x2 = 0.2795 | – | 1023.76
[1], x2 = 0.3441 | – | 1013.82
[1], x2 = 0.4081 | – | 1003.67
[1], x2 = 0.5278 | – | 983.77
[1], x2 = 0.586 | – | 973.68
[1], x2 = 0.641 | – | 963.84
[1], x2 = 0.702 | – | 952.63
[1], x2 = 0.7544 | – | 942.71
[1], x2 = 0.856 | – | 922.68
[1], x2 = 0.9056 | – | 912.53
[1], x2 = 0.9528 | – | 902.59
[2], x2 = 0.095 | 0.006 | –
[2], x2 = 0.1874 | 0.00985 | –
[2], x2 = 0.2768 | 0.0102 | –
[2], x2 = 0.3583 | 0.00722 | –
[2], x2 = 0.4321 | 0.00131 | –
[2], x2 = 0.4949 | -0.00696 | –
[2], x2 = 0.5195 | -0.00906 | –
[2], x2 = 0.5526 | -0.0129 | –
[2], x2 = 0.566 | -0.0141 | –
[2], x2 = 0.616 | -0.0186 | –
[2], x2 = 0.6674 | -0.0208 | –
[2], x2 = 0.7246 | -0.0205 | –
[2], x2 = 0.7832 | -0.0183 | –
[2], x2 = 0.8346 | -0.0157 | –
[2], x2 = 0.892 | -0.0102 | –
[2], x2 = 0.9474 | -0.0059 | –

ClCCCCCCCl [1,6-dichlorohexane] + CCOC=O
Settings | excess molar enthalpy [kcal/mol] | mass density [kg/m3]
[1], x2 = 0.0997 | – | 1055.27
[1], x2 = 0.196 | – | 1046.53
[1], x2 = 0.28 | – | 1038.19
[1], x2 = 0.3577 | – | 1029.9
[1], x2 = 0.4304 | – | 1021.49
[1], x2 = 0.4965 | – | 1013.36
[1], x2 = 0.558 | – | 1005.21
[1], x2 = 0.6159 | – | 997.06
[1], x2 = 0.67 | – | 988.91
[1], x2 = 0.7203 | – | 980.91
[1], x2 = 0.7675 | – | 973
[1], x2 = 0.8114 | – | 965.17
[1], x2 = 0.8538 | – | 957.24
[1], x2 = 0.893 | – | 949.58
[1], x2 = 0.9301 | – | 941.93
[1], x2 = 0.9649 | – | 934.51
[2], x2 = 0.102 | 0.0409 | –
[2], x2 = 0.205 | 0.0712 | –
[2], x2 = 0.2968 | 0.09352 | –
[2], x2 = 0.3852 | 0.1054 | –
[2], x2 = 0.4641 | 0.1101 | –
[2], x2 = 0.5316 | 0.1113 | –
[2], x2 = 0.5845 | 0.1095 | –
[2], x2 = 0.6442 | 0.1042 | –
[2], x2 = 0.6907 | 0.09704 | –
[2], x2 = 0.7399 | 0.08726 | –
[2], x2 = 0.7869 | 0.0732 | –
[2], x2 = 0.8348 | 0.0598 | –
[2], x2 = 0.8829 | 0.0418 | –
[2], x2 = 0.9248 | 0.0285 | –
[2], x2 = 0.9656 | 0.0148 | –

CCOC=O [ethyl methanoate] + ClCCCl
Settings | excess molar enthalpy [kcal/mol] | mass density [kg/m3]
[1], x1 = 0.0571 | – | 1226.06
[1], x1 = 0.1212 | – | 1204.8
[1], x1 = 0.1793 | – | 1185.79
[1], x1 = 0.2317 | – | 1168.78
[1], x1 = 0.2946 | – | 1148.35
[1], x1 = 0.355 | – | 1128.9
[1], x1 = 0.4144 | – | 1109.76
[1], x1 = 0.465 | – | 1093.66
[1], x1 = 0.5294 | – | 1073.24
[1], x1 = 0.5889 | – | 1054.49
[1], x1 = 0.6485 | – | 1035.88
[1], x1 = 0.7065 | – | 1017.61
[1], x1 = 0.7648 | – | 999.52
[1], x1 = 0.8239 | – | 981.06
[1], x1 = 0.8823 | – | 962.96
[1], x1 = 0.9345 | – | 946.9
[2], x1 = 0.0533 | -0.0075 | –
[2], x1 = 0.117 | -0.0173 | –
[2], x1 = 0.1872 | -0.0268 | –
[2], x1 = 0.2551 | -0.0353 | –
[2], x1 = 0.3201 | -0.0432 | –
[2], x1 = 0.3798 | -0.05 | –
[2], x1 = 0.4359 | -0.0549 | –
[2], x1 = 0.4835 | -0.0584 | –
[2], x1 = 0.5094 | -0.0598 | –
[2], x1 = 0.5591 | -0.0598 | –
[2], x1 = 0.6134 | -0.0574 | –
[2], x1 = 0.6735 | -0.0546 | –
[2], x1 = 0.7374 | -0.0485 | –
[2], x1 = 0.8 | -0.0397 | –
[2], x1 = 0.8714 | -0.0283 | –
[2], x1 = 0.9368 | -0.0146 | –

ClCCCCCCl [1,5-dichloropentane] + CCCOC=O
Settings | excess molar enthalpy [kcal/mol] | mass density [kg/m3]
[1], x2 = 0.0753 | – | 1084.21
[1], x2 = 0.1495 | – | 1073.17
[1], x2 = 0.2212 | – | 1062.01
[1], x2 = 0.2884 | – | 1051.29
[1], x2 = 0.3607 | – | 1039.4
[1], x2 = 0.4174 | – | 1029.7
[1], x2 = 0.4802 | – | 1018.63
[1], x2 = 0.5386 | – | 1008.06
[1], x2 = 0.6024 | – | 996.11
[1], x2 = 0.6568 | – | 985.57
[1], x2 = 0.7118 | – | 974.66
[1], x2 = 0.8133 | – | 953.48
[1], x2 = 0.8586 | – | 943.64
[1], x2 = 0.9056 | – | 933.22
[1], x2 = 0.9555 | – | 921.68
[2], x2 = 0.0792 | 0.0136 | –
[2], x2 = 0.1664 | 0.0219 | –
[2], x2 = 0.2538 | 0.0276 | –
[2], x2 = 0.3307 | 0.0289 | –
[2], x2 = 0.4063 | 0.0282 | –
[2], x2 = 0.4789 | 0.0251 | –
[2], x2 = 0.5175 | 0.022 | –
[2], x2 = 0.5645 | 0.0176 | –
[2], x2 = 0.6145 | 0.0142 | –
[2], x2 = 0.6665 | 0.00935 | –
[2], x2 = 0.7229 | 0.00478 | –
[2], x2 = 0.7817 | 0.0016 | –
[2], x2 = 0.8389 | -0.00249 | –
[2], x2 = 0.8948 | -0.00507 | –
[2], x2 = 0.9503 | -0.00287 | –

ClCCCCCl [1,4-dichlorobutane] + COC=O
Settings | excess molar enthalpy [kcal/mol] | mass density [kg/m3]
[1], x2 = 0.1002 | – | 1123.14
[1], x2 = 0.1967 | – | 1112.22
[1], x2 = 0.2763 | – | 1102.15
[1], x2 = 0.3523 | – | 1092.16
[1], x2 = 0.4263 | – | 1081.69
[1], x2 = 0.4898 | – | 1072.05
[1], x2 = 0.5567 | – | 1061.23
[1], x2 = 0.615 | – | 1051.3
[1], x2 = 0.6692 | – | 1041.41
[1], x2 = 0.7199 | – | 1031.71
[1], x2 = 0.7663 | – | 1022.34
[1], x2 = 0.8116 | – | 1012.65
[1], x2 = 0.8535 | – | 1003.36
[1], x2 = 0.8907 | – | 994.7
[1], x2 = 0.9302 | – | 985.1
[1], x2 = 0.9657 | – | 976.07
[2], x2 = 0.1071 | 0.0424 | –
[2], x2 = 0.2326 | 0.08 | –
[2], x2 = 0.3559 | 0.1062 | –
[2], x2 = 0.4541 | 0.1196 | –
[2], x2 = 0.5426 | 0.1239 | –
[2], x2 = 0.5971 | 0.123 | –
[2], x2 = 0.6515 | 0.1218 | –
[2], x2 = 0.7083 | 0.1165 | –
[2], x2 = 0.7662 | 0.108 | –
[2], x2 = 0.8103 | 0.09393 | –
[2], x2 = 0.8803 | 0.0755 | –
[2], x2 = 0.9274 | 0.0548 | –
[2], x2 = 0.9702 | 0.032 | –
